Laboratory results taken from US11827866B2 (priority 2007, dated 2023).

System: protease
Format: biochemical
Conditions: pH 9

| SMILES | Residual activity (4 weeks at 40° C.) [%] | Residual activity (2 weeks at 40° C.) [%] |
| --- | --- | --- |
| O=P(O)(O)O [Sodium Phosphate] | 13 | – |
| O=C([O-])[O-].[Na+].[Na+] [Sodium Carbonate] | 15 | – |
| [Cl-].[Cl-].[Zn+2] [Zink Chloride] | – | 102 |
| O=S(=O)([O-])[O-].[Na+].[Na+] [Sodium Sulfate] | 22 | – |
| O=[N+]([O-])[O-].[Na+] [Sodium Nitrate] | 20 | – |
| [Cl-].[Na+] [Sodium Chloride] | 32 | – |
| O=C[O-].[Na+] [Sodium Formiate] | 29 | – |
| Cl.N [Armonium Chloride] | 49 | – |
| [Cl-].[K+] [Potassium Chloride] | 34 | – |
| O=S(=O)([O-])[O-].[Zn+2] [Zink Sulfate] | – | 88 |
| N.O=[N+]([O-])O [Armonium Nitrate] | 41 | – |
| O=S(=O)([O-])[O-].[Mg+2] [Magnesium Sulfate] | 37 | – |
| [Cl-].[Cl-].[Mg+2] [Magnesium Chloride] | 79 | – |
| [Cl][Al]([Cl])[Cl] [Aluminium Chloride] | 16 | – |
| O=C([O-])CC(O)(CC(=O)[O-])C(=O)[O-].[Na+].[Na+].[Na+] [Sodium Citrate] | 1 | – |
| N.N.O=S(=O)(O)O [Armonium Sulfate] | 43 | – |
| CC(=O)[O-].[Na+] [Sodium Acetate] | 20 | – |
| O=[N+]([O-])[O-].O=[N+]([O-])[O-].[Mg+2] [Magnesium Nitrate] | 55 | – |
| [Ca+2].[Cl-].[Cl-] [Calcium Chloride] | 22 | – |

Target: subtilisin (Bacillus licheniformis, UniProt P00780)
Conditions: literature statement, Biochem. Biophys. Res. Com. 176, 1991; cited from earlier work

Sequence of subtilisin (P00780 106-379): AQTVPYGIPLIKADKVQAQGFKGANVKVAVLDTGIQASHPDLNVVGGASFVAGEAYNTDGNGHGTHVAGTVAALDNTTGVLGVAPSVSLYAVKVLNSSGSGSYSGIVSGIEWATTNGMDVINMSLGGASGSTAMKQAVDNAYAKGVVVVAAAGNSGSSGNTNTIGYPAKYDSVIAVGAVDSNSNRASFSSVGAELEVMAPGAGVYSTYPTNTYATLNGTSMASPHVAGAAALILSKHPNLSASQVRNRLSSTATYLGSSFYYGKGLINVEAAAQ

| SMILES | capacity as subtilisin inhibitor |
| --- | --- |
| CB(O)O [methylboronic acid] | poorest inhibitor |
| OB(O)c1cc(Cl)cc(Cl)c1 [3,5-dichlorophenylboronic acid] | particularly effective |
